# Source: patent publication US20140357582A1, “DESRHAMNOSYL ACTEOSIDE-CONTAINING OLIVE EXTRACT” (SUNTORY HOLDINGS LIMITED, priority 2012, published 2014)
# Legend:
# SD (IGS) male rats = experiment: Blood antioxidative activity (FRAP and ORAC methods) in rats after oral administration; assay type: in vivo, rat; conditions: 5 mL/kg; for blood antioxidative activity after administration: 0.8 mM suspension in 0.5% CMC or olive oil, FRAP and ORAC, up to 24 hours
# Experimental: The influence of DRA on blood antioxidative activity was evaluated using rats. The evaluation of blood antioxidative activity was performed using the FRAP and ORAC methods. The DRA and acteoside used in this evaluation were those prepared by the same procedures as in Example 2 and Preparation Example 2, respectively.
# (§1) SD (IGS) male rats (6 weeks old) were purchased from Charles River Laboratories Japan, Inc. After the rats were acclimated to the test environment for one week, those rats which grew normally were subjected to testing. The rats were fasted overnight and divided into five groups each consisting of three rats. Rats were orally administered a 0.5% CMC solution (Group 1), a suspension of DRA in 0.5% CMC (0.8 mM) (Group 2), a suspension of purified acteoside in 0.5% CMC (0.8 mM) (Group 3), an olive oil solution (Nacalai Tesque, Inc.; Code No. 073-26) (Group 4), and a suspension of DRA in olive oil (0.8 mM) (Group 5), each at a dose of 5 mL/kg. Before administration and 0.5, 1, 3, 6, 9 and 24 hours after administration for Groups 1-3, or before administration and 1, 3, 6, 9 and 24 hours after administration for Groups 4-5, a blood sample was collected from the caudal vein in heparinized tube and was centrifuged (at 8,000 rpm for 10 min.) to obtain plasma sample. At a later date, plasma FRAP activity as well as the ORAC activity of the supernatants obtained after deproteinization with acetone were evaluated.
# [1] = Absorption in the body: blood concentrations by LC-MS/MS after oral administration; assay type: in vivo, rat; conditions: rats; for Cmax: male, SD (IGS), rat, 4 µmol/kg, suspension in 0.5% CMC (0.8 mM), 5 mL/kg, pooled plasma, β-glucuronidase/arylsulphatase treated, read-out: maximum blood concentration (Cmax) of the administered compound itself
# Experimental: as §1
# Among the plasma samples collected for the determination of blood antioxidative activity in Example 5, some parts of those samples from Group 1 (a 0.5% CMC solution), Group 2 (a suspension of DRA in 0.5% CMC) and Group 3 (a suspension of acteoside in 0.5% CMC) were used to determine the blood concentrations of the respective samples after administration.
# After equivalent amounts of the plasma samples from the three rats in each group were mixed and homogenized, 90 μL of a helix pomatia-derived β-glucuronidase/arylsulphatase/acetate buffer (pH 5.0) was added to 90 μL of the plasma mixture and incubation was conducted at 37° C. for one hour. After 900 μL of acetonitrile was added to terminate the reaction, 10 μL of an aqueous solution of 1% ascorbic acid and 10 μL of an internal standard solution were added, and the contents were mixed and centrifuged (at 15,000 rpm for 10 min.) to recover a supernatant. The recovered supernatant was concentrated under reduced pressure, dissolved again in 50% methanol, passed through a filter, and subjected to LC-MS/MS analysis to quantify acteoside, DRA, hydroxytyrosol, and coffeic acid. The amounts of acteoside, DRA, hydroxytyrosol, and coffeic acid were determined by the ratio of each of their peak areas to the peak area of hesperidin (Wako) used as an internal standard. The LC-MS/MS analysis conditions are shown below.
# [2] = acteoside versus DRA; cited from earlier work
# [3] = oral; cited from earlier work
# [4] = suspension in 0.5% CMC, DRA versus acteoside
Structure (SMILES),blood antioxidative activity after administration (SD (IGS) male rats),Cmax [1],"in vitro antioxidative activity, comparison [2]",absorbability when orally ingested [3],"time of earlier peak of FRAP activity after administration (SD (IGS) male rats; DRA 0.8 mM, first of bimodal peaks)","time of later peak of FRAP activity after administration (SD (IGS) male rats; DRA 0.8 mM, second of bimodal peaks)","amount absorbed in the body relative to acteoside, by AUCs of coffeic acid [1, 4]","amount absorbed in the body relative to acteoside, by AUCs of hydroxytyrosol [1, 4]"
C[C@@H]1O[C@@H](O[C@@H]2[C@@H](O)[C@H](OCCc3ccc(O)c(O)c3)O[C@H](CO)[C@H]2OC(=O)/C=C/c2ccc(O)c(O)c2)[C@H](O)[C@H](O)[C@H]1O [acteoside],little increase,< 1000 nM,more active than DRA,poor absorbability,,,,
"O=C(C=Cc1ccc(O)c(O)c1)O[C@@H]1C(CO)OC(OCCc2ccc(O)c(O)c2)C(O)C1O (stereo partly shown) [DRA, desrhamnosyl acteoside]",apparent increase,< 1000 nM,,,1 to 3 h,9 h,about 13 times,about 3 times
